Calls of active or inactive are those of the source. How the calls were made is not given here.

The test system of this series is CCRIS mutagenicity, Ames/micronucleus/aberration tests. Description: CCRIS mutagenicity studies.
[1] abbreviates: Test System: AMES SALMONELLA TYPHIMURIUM, Strain/Indicator: TA98, Metabolic Activation: NONE, Method: PREINCUBATION
Where [2] appears, read: Test System: AMES SALMONELLA TYPHIMURIUM, Strain/Indicator: TA100, Metabolic Activation: NONE, Method: PREINCUBATION
Where [3] appears, read: Test System: AMES SALMONELLA TYPHIMURIUM, Strain/Indicator: TA98, Metabolic Activation: NONE, Method: STANDARD PLATE.
[4] abbreviates: Test System: AMES SALMONELLA TYPHIMURIUM, Strain/Indicator: TA98, Metabolic Activation: RAT, LIVER, S-9, AROCLOR 1254, Method: STANDARD PLATE.
Where [5] appears, read: Test System: AMES SALMONELLA TYPHIMURIUM, Strain/Indicator: TA100, Metabolic Activation: NONE, Method: STANDARD PLATE.
The mark [6] stands for this setting: Test System: AMES SALMONELLA TYPHIMURIUM, Strain/Indicator: TA100, Metabolic Activation: RAT, LIVER, S-9, AROCLOR 1254, Method: STANDARD PLATE.
Where [7] appears, read: Test System: AMES SALMONELLA TYPHIMURIUM, Strain/Indicator: TA1535, Metabolic Activation: NONE, Method: STANDARD PLATE.
Where [8] appears, read: Test System: AMES SALMONELLA TYPHIMURIUM, Strain/Indicator: TA1535, Metabolic Activation: RAT, LIVER, S-9, AROCLOR 1254, Method: STANDARD PLATE.
[9] abbreviates: Test System: AMES SALMONELLA TYPHIMURIUM, Strain/Indicator: TA1537, Metabolic Activation: NONE, Method: STANDARD PLATE.
Setting [10] is: Test System: AMES SALMONELLA TYPHIMURIUM, Strain/Indicator: TA1537, Metabolic Activation: RAT, LIVER, S-9, AROCLOR 1254, Method: STANDARD PLATE.
Where [11] appears, read: Test System: AMES SALMONELLA TYPHIMURIUM, Strain/Indicator: TA1538, Metabolic Activation: NONE, Method: STANDARD PLATE.
[12] abbreviates: Test System: AMES SALMONELLA TYPHIMURIUM, Strain/Indicator: TA1538, Metabolic Activation: RAT, LIVER, S-9, AROCLOR 1254, Method: STANDARD PLATE.

On to `Nc1cc([N+](=O)[O-])cc(Cl)c1O`, for which the mutagenic call by setting is: (Test System: AMES SALMONELLA TYPHIMURIUM, Strain/Indicator: TA97, Metabolic Activation: HAMSTER, LIVER, S-9, AROCLOR 1254 (10%), Method: PREINCUBATION) “active; positive”; (Test System: AMES SALMONELLA TYPHIMURIUM, Strain/Indicator: TA97, Metabolic Activation: NONE, Method: PREINCUBATION) “active; positive”; (Test System: AMES SALMONELLA TYPHIMURIUM, Strain/Indicator: TA97, Metabolic Activation: RAT, LIVER, S-9, AROCLOR 1254 (10%), Method: PREINCUBATION) “active; positive”; (Test System: AMES SALMONELLA TYPHIMURIUM, Strain/Indicator: TA98, Metabolic Activation: HAMSTER, LIVER, S-9, AROCLOR 1254 (10%), Method: PREINCUBATION) “active; positive”; under setting [1], “active; positive”; (Test System: AMES SALMONELLA TYPHIMURIUM, Strain/Indicator: TA98, Metabolic Activation: RAT, LIVER, S-9, AROCLOR 1254 (10%), Method: PREINCUBATION) “active; positive”. The mutagenic call (Test System: AMES SALMONELLA TYPHIMURIUM, Strain/Indicator: TA100, Metabolic Activation: HAMSTER, LIVER, S-9, AROCLOR 1254 (10%), Method: PREINCUBATION) was “inactive; negative”; the mutagenic call under setting [2] was “active; positive”; the mutagenic call (Test System: AMES SALMONELLA TYPHIMURIUM, Strain/Indicator: TA100, Metabolic Activation: RAT, LIVER, S-9, AROCLOR 1254 (10%), Method: PREINCUBATION) is “active; positive”; the mutagenic call (Test System: AMES SALMONELLA TYPHIMURIUM, Strain/Indicator: TA1535, Metabolic Activation: HAMSTER, LIVER, S-9, AROCLOR 1254 (10%), Method: PREINCUBATION) is “inactive; negative”; the mutagenic call (Test System: AMES SALMONELLA TYPHIMURIUM, Strain/Indicator: TA1535, Metabolic Activation: NONE, Method: PREINCUBATION) was “inactive; negative”; the mutagenic call (Test System: AMES SALMONELLA TYPHIMURIUM, Strain/Indicator: TA1535, Metabolic Activation: RAT, LIVER, S-9, AROCLOR 1254 (10%), Method: PREINCUBATION) is “inactive; negative”.

In the case of `CC(C)NNC(=O)c1ccncc1`, the mutagenic call by setting is: under setting [3], “inactive; negative”; under setting [4], “inactive; negative”; under setting [5], “inactive; negative”; under setting [6], “inactive; negative”; under setting [7], “inactive; negative”; under setting [8], “inactive; negative”. Besides, the mutagenic call was “inactive; negative” under setting [9] and “inactive; negative” under setting [10].

With `CN(C)CCN(C)N=O`, the mutagenic call reads like this: (Test System: AMES SALMONELLA TYPHIMURIUM, Strain/Indicator: TA1535, Metabolic Activation: HAMSTER, LIVER, S-9, Method: STANDARD PLATE) “active; positive”; (Test System: AMES SALMONELLA TYPHIMURIUM, Strain/Indicator: TA1535, Metabolic Activation: RAT, LIVER, S-9, Method: STANDARD PLATE) “inactive; negative”.

With `O=C(CCc1ccc(O)cc1)c1c(O)cc(O)cc1O`, the mutagenic call runs as follows: (Test System: AMES SALMONELLA TYPHIMURIUM, Strain/Indicator: TA98, Metabolic Activation: HAMSTER, LIVER, S-9, AROCLOR 1254, Method: STANDARD PLATE) “inactive; negative”; under setting [3], “inactive; negative”; under setting [4], “inactive; negative”; (Test System: AMES SALMONELLA TYPHIMURIUM, Strain/Indicator: TA100, Metabolic Activation: HAMSTER, LIVER, S-9, AROCLOR 1254, Method: STANDARD PLATE) “inactive; negative”; under setting [5], “inactive; negative”; under setting [6], “inactive; negative”. In addition, the mutagenic call was “inactive; negative” (Test System: AMES SALMONELLA TYPHIMURIUM, Strain/Indicator: TA1535, Metabolic Activation: HAMSTER, LIVER, S-9, AROCLOR 1254, Method: STANDARD PLATE); “inactive; negative” under setting [7]; “inactive; negative” under setting [8]; “inactive; negative” (Test System: AMES SALMONELLA TYPHIMURIUM, Strain/Indicator: TA1537, Metabolic Activation: HAMSTER, LIVER, S-9, AROCLOR 1254, Method: STANDARD PLATE); “inactive; negative” under setting [9]; “inactive; negative” under setting [10]. The mutagenic call is, setting by setting: (Test System: AMES SALMONELLA TYPHIMURIUM, Strain/Indicator: TA1538, Metabolic Activation: HAMSTER, LIVER, S-9, AROCLOR 1254, Method: STANDARD PLATE) “inactive; negative”; under setting [11], “inactive; negative”; under setting [12], “inactive; negative”.

Take `CCOC(=O)CCBr`: the mutagenic call reads like this: (End Point: IN VITRO CHROMOSOMAL ABERRATIONS, Test System: CHL CELLS, Metabolic Activation: NONE) “active; positive (structural changes)”; (End Point: IN VITRO CHROMOSOMAL ABERRATIONS, Test System: CHL CELLS, Metabolic Activation: RAT, LIVER, S-9, SODIUM PHENOBARBITAL AND 5,6-BENZOFLAVONE) “active; positive (structural changes)”.

Regarding `Cc1c([N+](=O)[O-])c2ccccc2c2ccc3ccccc3c12`, the mutagenic call was “inactive; negative” under setting [1]; “active; positive” (Test System: AMES SALMONELLA TYPHIMURIUM, Strain/Indicator: TA98, Metabolic Activation: RAT, LIVER, S-9, Method: PREINCUBATION); “inactive; negative” under setting [2]; “inactive; negative” under setting [5]; “active; positive” under setting [6]; “active; positive” (Test System: AMES SALMONELLA TYPHIMURIUM, Strain/Indicator: TA100, Metabolic Activation: RAT, LIVER, S-9, Method: PREINCUBATION).

On to `Cc1nc2c(C)cc3c(nc(N)n3C)c2nc1C`, for which the mutagenic call under setting [4] was “active; positive”.

In the case of `C=CC(=O)OCCOCCOC(=O)C=C`, the mutagenic call under setting [3] is “inactive; negative”; the mutagenic call under setting [4] is “inactive; negative”; the mutagenic call (Test System: AMES SALMONELLA TYPHIMURIUM, Strain/Indicator: TA98, Metabolic Activation: RAT, LIVER, S-9, SODIUM PHENOBARBITAL, Method: STANDARD PLATE) was “inactive; negative”; the mutagenic call under setting [5] is “inactive; negative”; the mutagenic call under setting [6] was “inactive; negative”; the mutagenic call (Test System: AMES SALMONELLA TYPHIMURIUM, Strain/Indicator: TA100, Metabolic Activation: RAT, LIVER, S-9, SODIUM PHENOBARBITAL, Method: STANDARD PLATE) was “inactive; negative”. Moreover, the mutagenic call under setting [7] was “inactive; negative”; the mutagenic call under setting [8] is “inactive; negative”; the mutagenic call (Test System: AMES SALMONELLA TYPHIMURIUM, Strain/Indicator: TA1535, Metabolic Activation: RAT, LIVER, S-9, SODIUM PHENOBARBITAL, Method: STANDARD PLATE) was “inactive; negative”; the mutagenic call under setting [9] is “inactive; negative”; the mutagenic call under setting [10] is “inactive; negative”; the mutagenic call (Test System: AMES SALMONELLA TYPHIMURIUM, Strain/Indicator: TA1537, Metabolic Activation: RAT, LIVER, S-9, SODIUM PHENOBARBITAL, Method: STANDARD PLATE) is “inactive; negative”. For the same compound, the mutagenic call reads like this: under setting [11], “inactive; negative”; under setting [12], “inactive; negative”; (Test System: AMES SALMONELLA TYPHIMURIUM, Strain/Indicator: TA1538, Metabolic Activation: RAT, LIVER, S-9, SODIUM PHENOBARBITAL, Method: STANDARD PLATE) “inactive; negative”.

Turning to `O=CC(Cl)Cl`, the mutagenic call (Test System: CHINESE HAMSTER V-79, Strain/Indicator: V-79/OUABAIN, Metabolic Activation: NONE) was “inactive; negative” and the mutagenic call (Test System: UDS HUMAN CELLS, Strain/Indicator: EUE LINE/THY INCORP, Metabolic Activation: NONE, Method: AUTORADIOGRAPHY) is “inactive; negative”.

Values taken from PubChem BioAssay AID1259407 (Chemical Carcinogenesis Research Information System (CCRIS), 2018).
